Test results taken from patent US20130303509A1, “NAMPT INHIBITORS” (AbbVie Inc., priority 2012, published 2013).

test system: PC3 cells; experiment: NAMPT Cell Proliferation Assay; type: cell-based; settings: Homo sapiens, PC-3, 120 h, 5 days incubation, cell viability by Cell Titer Glo
In short: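 Seeded at 500 cells/well in RPMI with 10% heat-inactivated FBS and left to attach overnight at 37° C, 5% CO2. Compounds were added as 10-fold dilutions […] for 5 days, then viability was read by CellTiter-Glo. IC50s came from sigmoidal fits of percent inhibition.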

| SMILES | IC50 [nM] |
| --- | --- |
| CC[C@H](C)C(=O)N1CCC(c2ccc(NC(=O)C3CN(c4ccnnc4)C3)cc2)CC1 [Example 143, N-(4-{1-[(2S)-2-methylbutanoyl]piperidin-4-yl}phenyl)-1-(pyridazin-4-yl)azetidine-3-carboxamide] | 4.96 |
| CC(=O)N1CCC(c2ccc(NC(=O)[C@H]3CCN(c4cccnn4)C3)cc2)CC1 [Example 691, (3S)-N-[4-(1-acetylpiperidin-4-yl)phenyl]-1-(pyridazin-3-yl)pyrrolidine-3-carboxamide] | 30 |
| O=C(Nc1ccc(C2CCN(C(=O)c3ccc(Cl)cc3)CC2)cc1)[C@H]1CCN(c2cccnn2)C1 [Example 663, (3S)-N-{4-[1-(4-chlorobenzoyl)piperidin-4-yl]phenyl}-1-(pyridazin-3-yl)pyrrolidine-3-carboxamide] | 31.6 |
| COc1cccc(C(=O)N2CCC(S(=O)(=O)c3ccc(NC(=O)C4CN(c5cccnn5)C4)cc3)CC2)c1 [Example 596, N-(4-{[1-(3-methoxybenzoyl)piperidin-4-yl]sulfonyl}phenyl)-1-(pyridazin-3-yl)azetidine-3-carboxamide] | 84.6 |
| O=C(Nc1ccc(C2CCN(C(=O)c3cc(F)ccc3F)CC2)cc1)C1CN(c2cccnn2)C1 [Example 416, N-{4-[1-(2,5-difluorobenzoyl)piperidin-4-yl]phenyl}-1-(pyridazin-3-yl)azetidine-3-carboxamide] | 1.12 |
| Cc1ccc(C(=O)N2CCC(c3ccc(NC(=O)C4CN(c5cccnn5)C4)cc3)CC2)cc1F [Example 389, N-{4-[1-(3-fluoro-4-methylbenzoyl)piperidin-4-yl]phenyl}-1-(pyridazin-3-yl)azetidine-3-carboxamide] | 7.17 |
| O=C(Nc1ccc(O[C@@H]2CCN(C(=O)Cc3cccc(F)c3)C2)cc1)C1CN(c2ccnnc2)C1 [Example 452, N-[4-({(3R)-1-[(3-fluorophenyl)acetyl]pyrrolidin-3-yl}oxy)phenyl]-1-(pyridazin-4-yl)azetidine-3-carboxamide] | 63.2 |
| O=C(Nc1ccc(O[C@@H]2CCN(C(=O)c3ccc(F)cc3F)C2)cc1)C1CN(c2cccnn2)C1 [Example 509, N-(4-{[(3R)-1-(2,4-difluorobenzoyl)pyrrolidin-3-yl]oxy}phenyl)-1-(pyridazin-3-yl)azetidine-3-carboxamide] | 1.19 |
| CC(=O)N[C@@H](CC(C)C)C(=O)N1CCC(Oc2ccc(NC(=O)C3CN(c4cccnc4)C3)cc2)CC1 [Example 47, N-(4-{[1-(N-acetyl-L-leucyl)piperidin-4-yl]oxy}phenyl)-1-(pyridin-3-yl)azetidine-3-carboxamide] | 3.35 |
| O=C(Nc1ccc(C2CCN(C(=O)c3ccccc3Cl)CC2)cc1)C1CN(c2cccnn2)C1 [Example 350, N-{4-[1-(2-chlorobenzoyl)piperidin-4-yl]phenyl}-1-(pyridazin-3-yl)azetidine-3-carboxamide] | 0.75 |
| CC1CC1C(=O)N1CCC(c2ccc(C(=O)N[C@H]3CCN(c4cccnn4)C3)s2)CC1 (stereo partly drawn) [Example 762, 5-{1-[(2-methylcyclopropyl)carbonyl]piperidin-4-yl}-N-[(3S)-1-(pyridazin-3-yl)pyrrolidin-3-yl]thiophene-2-carboxamide] | 709 |
| O=C(Nc1ccc(OC2CCN(C(=O)c3ccccn3)CC2)cc1)C1CN(c2ccnnc2)C1 [Example 296, 1-(pyridazin-4-yl)-N-(4-{[1-(pyridin-2-ylcarbonyl)piperidin-4-yl]oxy}phenyl)azetidine-3-carboxamide] | 68.9 |
| CC(C)Cn1cc(-c2ccc(NC(=O)[C@H]3CCN(c4cccnn4)C3)cc2)cn1 [Example 769, (3S)-N-{4-[1-(2-methylpropyl)-1H-pyrazol-4-yl]phenyl}-1-(pyridazin-3-yl)pyrrolidine-3-carboxamide] | 18.6 |
| Cc1ccccc1C(=O)N1CCC(c2ccc(NC(=O)C3CN(c4cccnn4)C3)c(F)c2)CC1 [Example 831, N-{2-fluoro-4-[1-(2-methylbenzoyl)piperidin-4-yl]phenyl}-1-(pyridazin-3-yl)azetidine-3-carboxamide] | 7.25 |
| Cc1ncccc1N1CC(C(=O)Nc2ccc(C3CCN(C(=O)C(C)C(C)C)CC3)cc2)C1 (stereo not shown) [Example 198, N-{4-[1-(2,3-dimethylbutanoyl)piperidin-4-yl]phenyl}-1-(2-methylpyridin-3-yl)azetidine-3-carboxamide] | 71.6 |
| CC1(C(=O)N2CCC(Oc3ccc(NC(=O)C4CN(c5cccnc5)C4)cc3)CC2)CC1 [Example 66, N-[4-({1-[(1-methylcyclopropyl)carbonyl]piperidin-4-yl}oxy)phenyl]-1-(pyridin-3-yl)azetidine-3-carboxamide] | 5.81 |
| O=C(Nc1ccc(C2CCN(C(=O)CC3CCCC3)CC2)cc1)C1CN(c2ccnnc2)C1 [Example 144, N-{4-[1-(cyclopentylacetyl)piperidin-4-yl]phenyl}-1-(pyridazin-4-yl)azetidine-3-carboxamide] | 18.4 |

| SMILES | IC50 [nM] |
| --- | --- |
| Cc1ncccc1N1CC(C(=O)Nc2ccc(C3CCN(C(=O)c4ccc(C(F)(F)F)cc4)CC3)cc2)C1 [Example 157, 1-(2-methylpyridin-3-yl)-N-(4-{1-[4-(trifluoromethyl)benzoyl]piperidin-4-yl}phenyl)azetidine-3-carboxamide] | 948 |
| CC(C)Cn1cc(-c2ccc(C(=O)N[C@@H]3CCN(c4ccc(Cl)nn4)C3)s2)cn1 [Example 619, N-[(3R)-1-(6-chloropyridazin-3-yl)pyrrolidin-3-yl]-5-[1-(2-methylpropyl)-1H-pyrazol-4-yl]thiophene-2-carboxamide] | > 10000 |
| O=C(Nc1ccc(OC2CCN(C(=O)Cc3ccc(OC(F)(F)F)cc3)CC2)cc1)C1CN(c2cccnn2)C1 [Example 238, 1-(pyridazin-3-yl)-N-{4-[(1-{[4-(trifluoromethoxy)phenyl]acetyl}piperidin-4-yl)oxy]phenyl}azetidine-3-carboxamide] | 15.7 |
| O=C(Nc1ccc(S(=O)(=O)C2CCN(C(=O)c3ccc(F)cc3)CC2)cc1)C1CN(c2cccnn2)C1 [Example 588, N-(4-{[1-(4-fluorobenzoyl)piperidin-4-yl]sulfonyl}phenyl)-1-(pyridazin-3-yl)azetidine-3-carboxamide] | 113 |
| O=C(Nc1ccc(O[C@@H]2CCN(C(=O)CCC(F)(F)F)C2)cc1)[C@H]1CCN(c2cccnn2)C1 [Example 782, (3S)-1-(pyridazin-3-yl)-N-(4-{[(3R)-1-(4,4,4-trifluorobutanoyl)pyrrolidin-3-yl]oxy}phenyl)pyrrolidine-3-carboxamide] | 66.9 |
| O=C(Nc1ccc(O[C@@H]2CCN(C(=O)C3CCOC3)C2)cc1)C1CN(c2ccnnc2)C1 (stereo partly drawn) [Example 461, 1-(pyridazin-4-yl)-N-(4-{[(3R)-1-(tetrahydrofuran-3-ylcarbonyl)pyrrolidin-3-yl]oxy}phenyl)azetidine-3-carboxamide] | 646 |
| O=C(Nc1ccc(C2CCN(C(=O)Cc3cccc(Cl)c3)CC2)cc1)[C@H]1CCN(c2cccnn2)C1 [Example 657, (3S)-N-(4-{1-[(3-chlorophenyl)acetyl]piperidin-4-yl}phenyl)-1-(pyridazin-3-yl)pyrrolidine-3-carboxamide] | 8.44 |
| Cc1ccsc1C(=O)N1CCC(Oc2ccc(NC(=O)C3CN(c4cccnc4)C3)cc2)CC1 [Example 59, N-[4-({1-[(3-methylthiophen-2-yl)carbonyl]piperidin-4-yl}oxy)phenyl]-1-(pyridin-3-yl)azetidine-3-carboxamide] | 6.14 |
| CC(C)Cn1cc(-c2cc(C(=O)N[C@H]3CCN(c4cccnn4)C3)cs2)cn1 [Example 664, 5-[1-(2-methylpropyl)-1H-pyrazol-4-yl]-N-[(3S)-1-(pyridazin-3-yl)pyrrolidin-3-yl]thiophene-3-carboxamide] | 1150 |
| Cc1ncccc1N1CC(C(=O)Nc2ccc(C3CCN(C(=O)C4CC4C)CC3)cc2)C1 (stereo not shown) [Example 163, N-(4-{1-[(2-methylcyclopropyl)carbonyl]piperidin-4-yl}phenyl)-1-(2-methylpyridin-3-yl)azetidine-3-carboxamide] | 120 |
| CC[C@H](C(=O)N1CCC(S(=O)(=O)c2ccc(NC(=O)C3CN(c4cccnn4)C3)cc2)CC1)c1ccccc1 [Example 571, N-[4-({1-[(2S)-2-phenylbutanoyl]piperidin-4-yl}sulfonyl)phenyl]-1-(pyridazin-3-yl)azetidine-3-carboxamide] | 118 |
| O=C(Nc1ccc(C2CN(C(=O)c3ccc(F)cc3)C2)cc1)[C@H]1CCN(c2cccnn2)C1 [Example 787, (3S)-N-{4-[1-(4-fluorobenzoyl)azetidin-3-yl]phenyl}-1-(pyridazin-3-yl)pyrrolidine-3-carboxamide] | 63.9 |
| CC(=O)N[C@@H](CC(C)C)C(=O)N1CCC(c2ccc(NC(=O)C3CN(c4cccnc4)C3)cc2)CC1 [Example 120, N-{4-[1-(N-acetyl-L-leucyl)piperidin-4-yl]phenyl}-1-(pyridin-3-yl)azetidine-3-carboxamide] | 0.23 |
| O=C(Nc1ccc(OC2CCN(C(=O)C3CC3)CC2)cc1)C1CN(c2ccnnc2)C1 [Example 301, N-(4-{[1-(cyclopropylcarbonyl)piperidin-4-yl]oxy}phenyl)-1-(pyridazin-4-yl)azetidine-3-carboxamide] | 90.5 |
| O=C(Nc1ccc(C2CCN(C(=O)CC(F)(F)F)CC2)cc1)[C@H]1CCN(c2cccnn2)C1 [Example 734, (3S)-1-(pyridazin-3-yl)-N-{4-[1-(3,3,3-trifluoropropanoyl)piperidin-4-yl]phenyl}pyrrolidine-3-carboxamide] | 8.33 |
| CC(C)(C)C(=O)N1CCC(c2ccc(NC(=O)C3CCN(c4cccnn4)CC3)cc2)CC1 [Example 625, N-{4-[1-(2,2-dimethylpropanoyl)piperidin-4-yl]phenyl}-1-(pyridazin-3-yl)piperidine-4-carboxamide] | 1900 |
| CO[C@H](C(=O)N1CCC(c2ccc(NC(=O)C3CN(c4cccnn4)C3)cc2)CC1)c1ccccc1 [Example 420, N-(4-{1-[(2S)-2-methoxy-2-phenylacetyl]piperidin-4-yl}phenyl)-1-(pyridazin-3-yl)azetidine-3-carboxamide] | 2.35 |
